This is an account of results in US20250215011A1, “T-TYPE CALCIUM CHANNEL MODULATORS COMPRISING A DIAZASPIROHEPTANE CORE AND METHODS OF USE THEREOF” (Praxis Precision Medicines, Inc., priority 2022, published 2025).

The term IC50 denotes the concentration that gives 50% inhibition. Low readings indicate inhibition by little substance, high ones a need for much substance.

In the first experiment the target is Human Cav3.1 (Homo sapiens (Human), UniProt O43497). In words: Cav3.1 automated patch clamp assay (SyncroPatch 384PE), HEK-293 natClytin/TASK1+Cav3.1 cell line. In kind it is cell-based. Conditions: Table 1, HEK-293 natClytin/TASK1+Cav3.1 cells. The procedure: Inhibition of the T-type voltage gated calcium channel (Cav3.1) was evaluated using a HEK-293 natClytin/TASK1+Cav3.1 cell line. Currents were recorded using the SyncroPatch 384PE automated, patch clamp system. Pulse generation and data collection were performed with PatchController384 V1.3.0 and DataController384 V1.2.1 (Nanion Technologies). Off-line analysis was performed using Excel and Graphpad Prism (V 8.4.2) with complete data files uploaded to Dotmatics. The access resistance and apparent membrane capacitance were estimated using built-in protocols. Current was recorded in whole cell configuration from a population of cells. The cells were lifted, triturated, and resuspended at 800,000 cells/ml. The cells were allowed to recover in the cell hotel prior to experimentation. Currents were recorded at room temperature. The external solution contained the following (in mM): NaCl 80, NMDG 60, KCl 4, MgCl2 1, CaCl2 6, glucose 5 and HEPES 10 (pH=7.4, Osmolarity ˜300 mOsm). The extracellular solution was used as the wash, reference and compound delivery solution. The internal solution contained the following (in mM): CsF 110, CsCl 10, NaCl 10, EGTA 10, HEPES 10 (pH=7.2, Osmolarity ˜295 mOsm). The compound plate was created at 2× concentrated in the extracellular solution. The compound was diluted to 1:2 when added to the recording well. The amount of […] in the extracellular solution was held constant at the level used for the highest tested concentration. For the voltage clamp experiments on Cav3.1, data were sampled at 10 KHz. After establishment of the seal and the passage in the whole cell configuration, the cells were held at −120 mV. Cav3.1 current was evoked using a 100 ms step to −20 mV (to measure resting state block), followed by a 1600 ms step to −65 mV and a second 100 ms step to −20 mV (to measure voltage dependent block). The voltage protocol was applied every 15 seconds in the absence and in the presence of the compounds under investigation. […] Current amplitude (pA) was measured in the peak 1 and 2. The average of last 3 sweeps of each liquid period (vehicle, compound under investigation, full block) was calculated. Nickel-sensitive current was used to calculate the % of inhibition in the presence of the compound under investigation.
Sequence of Human Cav3.1 (O43497 whole entry): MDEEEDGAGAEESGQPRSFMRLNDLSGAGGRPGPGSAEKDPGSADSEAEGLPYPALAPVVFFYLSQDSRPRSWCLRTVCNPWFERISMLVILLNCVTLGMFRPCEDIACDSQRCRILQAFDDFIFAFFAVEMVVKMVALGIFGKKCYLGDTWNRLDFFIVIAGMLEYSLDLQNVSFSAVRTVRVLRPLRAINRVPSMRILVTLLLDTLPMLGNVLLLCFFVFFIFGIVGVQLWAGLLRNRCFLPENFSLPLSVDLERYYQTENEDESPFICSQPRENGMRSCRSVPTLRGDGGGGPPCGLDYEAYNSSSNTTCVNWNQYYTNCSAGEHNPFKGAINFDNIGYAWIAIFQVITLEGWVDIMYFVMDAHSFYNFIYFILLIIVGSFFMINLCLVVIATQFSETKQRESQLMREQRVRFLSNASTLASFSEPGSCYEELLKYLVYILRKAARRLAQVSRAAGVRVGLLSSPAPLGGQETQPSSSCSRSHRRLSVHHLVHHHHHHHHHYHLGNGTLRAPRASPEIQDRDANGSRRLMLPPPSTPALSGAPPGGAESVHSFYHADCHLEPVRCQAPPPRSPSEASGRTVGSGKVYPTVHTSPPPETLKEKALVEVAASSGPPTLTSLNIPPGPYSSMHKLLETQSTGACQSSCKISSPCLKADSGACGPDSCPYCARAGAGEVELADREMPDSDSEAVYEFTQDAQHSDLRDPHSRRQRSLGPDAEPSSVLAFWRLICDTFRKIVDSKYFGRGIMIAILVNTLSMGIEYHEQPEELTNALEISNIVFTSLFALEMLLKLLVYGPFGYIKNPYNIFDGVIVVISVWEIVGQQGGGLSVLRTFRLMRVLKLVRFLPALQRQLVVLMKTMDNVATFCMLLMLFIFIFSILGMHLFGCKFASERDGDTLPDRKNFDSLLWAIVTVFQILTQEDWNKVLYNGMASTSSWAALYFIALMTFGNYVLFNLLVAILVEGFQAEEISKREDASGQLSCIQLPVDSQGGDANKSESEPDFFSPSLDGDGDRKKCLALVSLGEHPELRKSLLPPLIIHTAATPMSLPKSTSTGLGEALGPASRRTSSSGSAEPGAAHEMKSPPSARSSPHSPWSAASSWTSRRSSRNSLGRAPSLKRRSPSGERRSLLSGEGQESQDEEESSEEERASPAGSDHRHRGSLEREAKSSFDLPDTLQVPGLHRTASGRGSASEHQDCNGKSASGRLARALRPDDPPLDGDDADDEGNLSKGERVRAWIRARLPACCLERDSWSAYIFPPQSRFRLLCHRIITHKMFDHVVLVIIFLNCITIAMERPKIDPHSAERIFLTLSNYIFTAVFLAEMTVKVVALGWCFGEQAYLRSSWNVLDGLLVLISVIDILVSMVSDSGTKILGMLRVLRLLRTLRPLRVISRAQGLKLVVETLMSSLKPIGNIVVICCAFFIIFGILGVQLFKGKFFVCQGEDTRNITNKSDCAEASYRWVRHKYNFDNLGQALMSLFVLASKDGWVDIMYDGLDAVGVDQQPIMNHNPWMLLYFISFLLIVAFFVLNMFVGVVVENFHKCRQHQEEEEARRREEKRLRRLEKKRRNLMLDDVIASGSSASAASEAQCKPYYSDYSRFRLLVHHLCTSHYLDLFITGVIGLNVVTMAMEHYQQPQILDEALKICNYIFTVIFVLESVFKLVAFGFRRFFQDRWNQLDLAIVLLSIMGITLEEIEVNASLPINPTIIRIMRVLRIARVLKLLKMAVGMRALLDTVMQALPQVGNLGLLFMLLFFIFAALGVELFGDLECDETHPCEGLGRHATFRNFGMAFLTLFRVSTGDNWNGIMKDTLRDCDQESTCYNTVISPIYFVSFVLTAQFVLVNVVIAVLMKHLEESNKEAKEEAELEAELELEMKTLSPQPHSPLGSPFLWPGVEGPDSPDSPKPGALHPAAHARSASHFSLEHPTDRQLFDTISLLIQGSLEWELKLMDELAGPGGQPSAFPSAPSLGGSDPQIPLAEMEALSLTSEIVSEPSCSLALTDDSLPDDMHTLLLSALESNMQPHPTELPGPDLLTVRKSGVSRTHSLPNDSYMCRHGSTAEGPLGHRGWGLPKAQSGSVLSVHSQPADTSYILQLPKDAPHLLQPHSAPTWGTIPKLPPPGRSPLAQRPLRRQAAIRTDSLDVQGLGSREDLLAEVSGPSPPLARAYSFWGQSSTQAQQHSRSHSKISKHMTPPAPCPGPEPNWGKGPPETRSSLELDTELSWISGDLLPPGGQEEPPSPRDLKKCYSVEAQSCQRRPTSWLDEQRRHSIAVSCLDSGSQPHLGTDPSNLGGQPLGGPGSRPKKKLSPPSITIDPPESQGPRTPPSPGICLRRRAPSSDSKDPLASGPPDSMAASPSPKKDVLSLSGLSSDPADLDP
(In general: Patch clamp records ionic current or voltage across a cell membrane.)
For the compound `CC(C)(C)NC(=O)CN1CC2(CN(CC(=O)Nc3cc(Cl)cc(Cl)c3)C2)C1` [Example 1, N-(tert-butyl)-2-(6-(2-((3,5-dichlorophenyl)amino)-2-oxoethyl)-2,6-diazaspiro[3.3]heptan-2-yl)acetamide], the concentration for half-maximal inhibition (IC50) was under 1 µM.

Regarding `COc1cc(F)cc(NC(=O)CN2CC3(C2)CN(CC(=O)NC(C)(C)C)C3)c1` [Example 2], the half-inhibitory concentration (IC50) fell in the range of 1 to 10 µM.

In the case of `CC(C)(C)NC(=O)CN1CC2(CN(CC(=O)Nc3cc(F)cc(C(F)F)c3)C2)C1` [Example 3], the IC50 lay within 1 to 10 µM.

In turn, `Cc1cc(F)cc(NC(=O)CN2CC3(C2)CN(CC(=O)NC(C)(C)C)C3)c1` [Example 4] yielded a half-maximal inhibitory concentration (IC50) of 1 to 10 µM.

For the compound `CC(C)(C)NC(=O)CN1CC2(CN(CC(=O)Nc3ccc(F)c(Cl)c3)C2)C1` [Example 5], the IC50 lay within 1 to 10 µM.

`CC(C)(C)NC(=O)CN1CC2(CN(CC(=O)Nc3cccc(Cl)c3)C2)C1` [Example 6] showed an IC50 of 1 to 10 µM.

In the case of `Cc1cc(NC(=O)CN2CC3(C2)CN(CC(=O)NC(C)(C)C)C3)nn1-c1ccccc1` [Example 7], the concentration for half-maximal inhibition (IC50) was at least 10 µM.

For `CC(C)(C)NC(=O)CN1CC2(CN(CC(=O)Nc3cccc(Cl)c3F)C2)C1` [Example 8], the half-maximal inhibitory concentration (IC50) is at least 10 µM.

Still in this experiment, the particulars now being: Table 2, HEK-293 natClytin/TASK1+Cav3.1 cells.
`CC(C)(C)NC(=O)CN1CC2(C1)CN(Cc1nc3cc(F)cc(Cl)c3[nH]1)C2` [Example 9, N-(tert-butyl)-2-(6-((7-chloro-5-fluoro-1H-benzo[d]imidazol-2-yl)methyl)-2,6-diazaspiro[3.3]heptan-2-yl)acetamide] came in with an IC50 of under 1 µM.

In turn, `CCC(C)(C)NC(=O)CN1CC2(CN(CC(=O)Nc3cc(F)cc(Cl)c3)C2)C1` [Example 10, N-(3-chloro-5-fluoro-phenyl)-2-[2-[2-(1,1-dimethylpropylamino)-2-oxo-ethyl]-2,6-diazaspiro[3.3]heptan-6-yl]acetamide] had an IC50 of under 1 µM.

Take `CC(C)(C)NC(=O)CN1CC2(CN(CC(=O)Nc3cc(F)cc(Cl)c3)C2)C1` [Example 11]: the IC50 was under 1 µM.

As for `CC(C)(C)NC(=O)CN1CC2(C1)CN(CC(=O)NC13CC4CC(CC(C4)C1)C3)C2` [Example 12], the IC50 lay in the range of 1 to 10 µM.

As for `CC(C)(C)c1nc(CN2CC3(CN(CC(=O)Nc4cc(F)cc(Cl)c4)C3)C2)co1` [Example 13], the IC50 was under 1 µM.

Compound `CC1(NC(=O)CN2CC3(CN(CC(=O)Nc4cc(F)cc(Cl)c4)C3)C2)CCC1` [Example 14] yielded a half-inhibitory concentration (IC50) of under 1 µM.

As to `O=C(CN1CC2(C1)CN(Cc1coc(-c3ccccc3)n1)C2)Nc1cc(F)cc(Cl)c1` [Example 15], the IC50 was under 1 µM.

Regarding `O=C(CN1CC2(C1)CN(CC(=O)NC1CCCC1)C2)Nc1cc(F)cc(Cl)c1` [Example 16], the half-maximal inhibitory concentration (IC50) is 1 to 10 µM.

`CC(C)(NC(=O)CN1CC2(CN(CC(=O)Nc3cc(F)cc(Cl)c3)C2)C1)C(F)(F)F` [Example 17] returned a half-maximal inhibitory concentration (IC50) of 1 to 10 µM.

In the case of `O=C(CN1CC2(C1)CN(Cc1nc3ccccc3[nH]1)C2)Nc1cc(F)cc(Cl)c1` [Example 18], the IC50 was under 1 µM.

`CC(C)(C)c1coc(CN2CC3(CN(CC(=O)Nc4cc(F)cc(Cl)c4)C3)C2)n1` [Example 19] returned an IC50 of 1 to 10 µM.

Turning to `O=C(CN1CC2(CN(CCC3CCCC3)C2)C1)Nc1cc(F)cc(Cl)c1` [Example 20], the 50% inhibitory concentration (IC50) was under 1 µM.

The compound `CC(C)(C)CCN1CC2(C1)CN(CC(=O)Nc1cc(F)cc(Cl)c1)C2` [Example 21] yielded a half-inhibitory concentration (IC50) of under 1 µM.

In turn, `Cc1nc(CN2CC3(CN(CC(=O)Nc4cc(F)cc(Cl)c4)C3)C2)co1` [Example 22] showed an IC50 of 1 to 10 µM.

In turn, `O=C(CN1CC2(C1)CN(Cc1cnc(-c3ccccc3)[nH]1)C2)Nc1cc(F)cc(Cl)c1` [Example 23] gave a half-inhibitory concentration (IC50) of under 1 µM.

`COc1cccc(CN2CC3(CN(CC(=O)Nc4cc(F)cc(Cl)c4)C3)C2)c1` [Example 24] showed an IC50 of 1 to 10 µM.

`O=C(CN1CC2(C1)CN(Cc1cccc(Cl)c1)C2)Nc1cc(F)cc(Cl)c1` [Example 25] displayed a concentration for half-maximal inhibition (IC50) of under 1 µM.

Take `O=C(CN1CC2(CN(CCC3CCC(F)(F)CC3)C2)C1)Nc1cc(F)cc(Cl)c1` [Example 26]: the half-maximal inhibitory concentration (IC50) is under 1 µM.

The compound `O=C(CN1CC2(C1)CN(Cc1cccc(C(F)F)c1)C2)Nc1cc(F)cc(Cl)c1` [Example 27] registered a concentration for half-maximal inhibition (IC50) of under 1 µM.

With `O=C(CN1CC2(C1)CN(Cc1nc(-c3ccccc3)co1)C2)Nc1cc(F)cc(Cl)c1` [Example 28], the concentration for half-maximal inhibition (IC50) was in the range of 1 to 10 µM.

Compound `CC(C)(C)c1ncc(CN2CC3(CN(CC(=O)Nc4cc(F)cc(Cl)c4)C3)C2)[nH]1` [Example 29] registered an IC50 of 1 to 10 µM.

For the compound `Cc1coc(CN2CC3(CN(CC(=O)Nc4cc(F)cc(Cl)c4)C3)C2)n1` [Example 30], the 50% inhibitory concentration (IC50) lay in the range of 1 to 10 µM.

On to `CC(C)(NC(=O)CN1CC2(C1)CN(Cc1nc3c(Cl)cc(F)cc3[nH]1)C2)C(F)(F)F` [Example 31], for which the half-maximal inhibitory concentration (IC50) is under 1 µM.

In the case of `CCC(C)(C)NC(=O)CN1CC2(C1)CN(Cc1nc3c(Cl)cc(F)cc3[nH]1)C2` [Example 32], the IC50 was under 1 µM.

The compound `CC(C)(C)CCN1CC2(C1)CN(Cc1nc3c(Cl)cc(F)cc3[nH]1)C2` [Example 33] displayed an IC50 of under 1 µM.

Consider `Fc1cc(Cl)c2nc(CN3CC4(CN(CCC5CCCC5)C4)C3)[nH]c2c1` [Example 34], for which the half-maximal inhibitory concentration (IC50) is under 1 µM.

Regarding `CC(C)(C)CCCN1CC2(C1)CN(Cc1nc3c(Cl)cc(F)cc3[nH]1)C2` [Example 35], the IC50 is under 1 µM.

The compound `Fc1cc(Cl)c2nc(CN3CC4(C3)CN(CC3CCC(F)(F)CC3)C4)[nH]c2c1` [Example 36] came in with a half-maximal inhibitory concentration (IC50) of under 1 µM.

`Cc1cccc2[nH]c(CN3CC4(CN(CC(=O)NC(C)(C)C)C4)C3)nc12` [Example 37]: the half-maximal inhibitory concentration (IC50) fell in the range of 1 to 10 µM.

Compound `Cc1cc(F)cc2[nH]c(CN3CC4(CN(CC(=O)NC(C)(C)C)C4)C3)nc12` [Example 38] registered a concentration for half-maximal inhibition (IC50) of 1 to 10 µM.

The compound `CC(C)(C)NC(=O)CN1CC2(C1)CN(Cc1nc3c(Cl)cc(Cl)cc3[nH]1)C2` [Example 39] came in with a half-maximal inhibitory concentration (IC50) of under 1 µM.

Compound `CC(C)(C)NC(=O)CN1CC2(C1)CN(Cc1nc3c(F)cc(OC(F)F)cc3[nH]1)C2` [Example 40] showed an IC50 of 1 to 10 µM.

`CC(C)(C)NC(=O)CN1CC2(CN(CC(=O)Nc3cc(F)cc(OC(F)F)c3)C2)C1` [Example 41] returned an IC50 of 1 to 10 µM.

As to `CC(C)(C)NC(=O)CN1CC2(C1)CN(C(=O)Nc1cc(F)cc(Cl)c1)C2` [Example 43], the half-inhibitory concentration (IC50) is under 1 µM.
